This note sets out measurements from ChEMBL document CHEMBL3352238, “Substituted indoles as selective protease activated receptor 4 (PAR-4) antagonists: Discovery and SAR of ML354” (Bioorg Med Chem Lett, 2014).

Data set [1] can be described thus: Intrinsic clearance in human. It is filed as ADME, organism-based. As to conditions: in vivo.
Data set [2] can be described thus: Intrinsic clearance in rat. The following applies: in vivo. The data set is classed as ADME, organism-based.

Broadly, the CLint scaled is the capacity of the preparation to metabolise the compound, expressed as a volume cleared per time. A low value points to greater metabolic stability. Turning to `CCOC(=O)c1ccc(-c2nn(Cc3ccccc3)c3ccccc23)cc1`, the CLint scaled in data set [1] stood at 75 mL/min/kg; in data set [2], 1090 mL/min/kg.
Regarding `Cn1c(CO)c(-c2ccccc2)c2cc([N+](=O)[O-])ccc21`, the CLint scaled is 157 mL/min/kg in data set [1] and 359 mL/min/kg in data set [2].
As to `CCOC(=O)c1ccc(-c2cn(Cc3ccccc3)c3ccccc23)cc1`, the CLint scaled in data set [1] is 77 mL/min/kg; in data set [2], 1160 mL/min/kg.
